This note sets out measurements from US10100052B2, “Compounds for the treatment of hepatitis B virus infection” (Gilead Sciences, Inc., priority 2016, dated 2018).

Series [1] in a line: In vitro metabolic stability, hepatic microsomes (human). Type of series: in vitro ADME. Particulars: pooled hepatic microsomes, pH 7.4; human hepatic microsomes 1.0 mg/mL, 1 μM compound, NADPH and UDPGA cofactors; read-out: Microsome Stability T1/2 Human. The method, then:
(§1) Pooled hepatic microsomes were diluted in […] potassium phosphate buffer to 1.0 mg/mL final protein concentration. Alamethicin was added to the microsomal fraction to permeabilize the membrane to allow access of the UDP-glucronic acid (UDPGA) co-substrate to the active site of the UDP glucuronosyl transferase (UGT) enzymes. The final concentration was 25 μg/mL (ratio 25 μg alamethicin/mg microsomal protein) and the microsomes were then placed on ice for 15 min prior to the start of the reaction. Test compound was added to a final concentration of 1 μM. Positive control compounds known to be metabolized by oxidative and UGT enzymes were used. The metabolic reaction was warmed to 37° C. and initiated by the addition of a cofactor mix that consisted of 1.55 mM NADP, 3.3 mM glucose-6-phosphate, 0.4 U/mL glucose-6-phosphate dehydrogenase, 5 mM UDP-glucuronic acid and 3.3 mM MgCl2 all dissolved in 0.1 M potassium phosphate buffer, pH 7.4. At 2, 12, 25, 45, and 65 min, 25 μL aliquots of the reaction mixture were transferred to plates containing 225 μl of quenching solution (acetonitrile containing 300 nM labetalol IS and 0.1% formic acid). After quenching, the plates are centrifuged at 3000×g for 30 minutes to precipitate proteins, and 10 μL aliquots of the supernatant are analyzed by HPLC coupled to a high-resolution mass spectrometer.
(§2) Quantification of test compounds and positive controls were performed using analyte/internal standard peak area ratios (PAR) measured on a Q-Exactive mass spectrometer (Thermo Scientific, San Jose, Calif.) coupled to an Aria Transcend LX-4 multiplex UHPLC system (Thermo Scientific, San Jose, Calif.). A Hypersil Gold C18 UHPLC column (1.9 […], 50×2.1 mm) was used with mobile phases A and B consisting of 0.1% formic acid in water and 0.1% formic acid in acetonitrile, respectively. […] Half-lives of compounds in the incubations were calculated from extracted data using GMSU/QuickCalc (Gubbs, Inc.) and data are summarized in the following Table 3.

A short description of series [2]: Pharmacokinetic analysis following oral administration to rats. Type of series: in vivo, male Sprague-Dawley rats. Particulars: rat, 5 mg/kg; for Cmax / AUC(0-t): male, Sprague-Dawley, plasma; for AUC(0-t): 0 to 24 hr, read-out: AUC0-24; for F: oral bioavailability. The method, then:
Pharmacokinetic analysis was performed on various test compounds following intravenous or oral administration to male Sprague-Dawley rats.
For pharmacokinetic analysis of intravenously administered compounds, the test compounds were formulated in 5% NMP, 30% PG, 45% PEG 300 and 20% water at 0.5 mg/mL for IV infusion. For pharmacokinetic analysis following oral administration, compounds were formulated in the same vehicle and concentration.
Each dosing group consisted of 3 male, naïve Sprague-Dawley rats. At dosing, animals weighed approximately 0.28 kg. The animals were fasted overnight prior to dose administration and up to 4 hr after dosing. For studies of intravenous administration, the test article was administered to the animals by intravenous infusion over 30 min. The rate of infusion was adjusted according to the body weight of each animal to deliver a dose of 1 mg/kg. For studies of oral administration, the test article was administered according to the body weight of each animal to deliver a dose of 5 mg/kg.
For pharmacokinetic analysis of orally administered compounds, serial venous blood samples (approximately 0.3 mL each) were taken from each animal at time points of 0, 0.25, 0.50, 1.0, 2.0, 4.0, 6.0, 8.0, 12.0 and 24.0 hours after dosing. Blood samples were collected, prepared and analyzed in a similar way to the intravenous studies described above. Non-compartmental pharmacokinetic analysis was performed on the plasma concentration-time data. The resulting data are shown in the last three columns of Table 4. In Table 4, F (%) refers to oral bioavailability. Cmax refers to the peak plasma concentration of the compound after administration. AUC0-24 refers to area under the curve for the 0 to 24 hr plasma collection interval and is a measure of total plasma exposure of the indicated compound.

The nature of series [3]: In vitro metabolic stability, hepatic microsomes (rat). Type of series: in vitro ADME. Particulars: pooled hepatic microsomes, pH 7.4; rat hepatic microsomes 1.0 mg/mL, 1 μM compound, NADPH and UDPGA cofactors; read-out: Microsome Stability T1/2 Rat. The method, then:
as §1, §2

The next series has as its system HBsAg. Description: PHH assay for inhibition of HBsAg. Type of series: cell-based, genotype D (AD38-derived) HBV in primary human hepatocytes. Particulars: Hepatitis B virus, 288 h, read-out: HBsAg EC50. The method, then:
Primary human hepatocytes (PHH) (Bioreclamation IVT) were plated on collagen-coated flasks using Plating Media (Life Technologies) containing William's Medium E supplemented with 1% penicillin/streptomycin, 4 μg/mL human recombinant insulin, 2 mM GlutaMAX, 15 mM HEPES, 1 μM dexamethasone, 5% fetal bovine serum, and 0.2% Torpedo Antibiotic Mix (Bioreclamation IVT). After a 4-hour incubation at 37° C., cells were switched to Maintenance Media (Life Technologies) containing William's Medium E supplemented with 0.5% penicillin/streptomycin, 6.25 µg/mL human recombinant insulin, 6.25 μg/mL human transferrin, 6.25 ng/mL selenous acid, 1.25 mg/mL bovine serum albumin, 5.35 μg/mL linoleic acid, 2 mM GlutaMAX, 15 mM HEPES, 0.1 μM dexamethasone, 2% fetal bovine serum, 2% DMSO, and 0.2% Torpedo Antibiotic Mix (Bioreclamation IVT). On the next day, PHH were infected with 500 genome equivalent per cell of genotype D (AD38-derived) HBV in Maintenance Media supplemented with 4% PEG 8000 (Promega). After 24 hour incubation, cells were washed three times with William's Medium E and fed with fresh Maintenance Media. At 3 days after infection, infected PHH cells were seeded on 96-well plates pre-coated with collagen at a density of 65000 cells per well containing serially diluted solutions of certain compounds disclosed herein or DMSO (1% final concentration) in a final volume of 125 μl of Maintenance Media (Life Technologies) containing William's Medium E supplemented with 0.5% penicillin/streptomycin, 6.25 μg/mL human recombinant insulin, 6.25 μg/mL human transferrin, 6.25 ng/mL selenous acid, 1.25 mg/mL bovine serum albumin, 5.35 μg/mL linoleic acid, 2 mM GlutaMAX, 15 mM HEPES, 0.1 μM dexamethasone, 5% fetal bovine serum, 1 mM 1-amininobenzotriaole, and 0.2% Torpedo Antibiotic Mix (Bioreclamation IVT). Media with compounds was replenished every 2-3 days. After an incubation time of 12 days, secreted HBsAg in the supernatant were measured using a multiplex chemiluminescent (Mesoscale discovery, MSD) assay using capture and detection antibody pairs specific for HBsAg. Comparative Example 1 and Comparative Example 2 have the following structures and were prepared according to International Publication No. WO 2015/113990.

What is called Cmax is the maximum level reached in the sampled fluid or tissue. Usually EC50 stands for the concentration giving half of the maximal effect. Consider `COCCCOc1cc2c(cc1Cl)-c1cc(=O)c(C(=O)O)cn1[C@H](C1(C)CC1)C2` [Comparative Example 1], for which, in series [1], the half-life at 1 μM is 3.9 h. Besides, in series [2], the peak level (Cmax) was 4.03 µM, the AUC(0-t) amounted to 22.1 µM·h and the F worked out at 53.8%. The half-life at 1 μM in series [3] was found to be 3.82 h. In the series with HBsAg, the EC50 was 1.8 nM.
Regarding `COCCCOc1cc2c(cc1Cl)-c1cc(=O)c(C(=O)O)cn1N(C(C)(C)C)C2` [Example 2, 6-(tert-Butyl)-10-chloro-9-(3-methoxypropoxy)-2-oxo-6,7-dihydro-2H-pyrido[2,1-a]-phthalazine-3-carboxylic acid], in series [1], the half-life at 1 μM was over 5.83 h. In series [2], the Cmax was 6.76 µM, the AUC(0-t) stood at 68.6 µM·h and the F is reported as 109%. Further, the half-life at 1 μM in series [3] is over 5.83 h. Moreover, in the series on HBsAg, the EC50 is 3 nM.
In the case of `COCCCOc1cc2c(cc1Cl)-c1cc(=O)c(C(=O)O)cn1[C@H](C(C)(C)C)C2` [Comparative Example 2], in series [1], the half-life at 1 μM amounted to 4.9 h. For the same compound, in series [2], the highest level (Cmax) was 2.43 µM, the AUC(0-t) came out at 15.2 µM·h and the F is 40.5%. The half-life at 1 μM in series [3] amounted to 3.83 h. Moreover, in the series on HBsAg, the EC50 turned out to be 0.5 nM.
